Reference: US20240299376A1, “METHOD OF TREATING A CONDITION USING A […] EFFECTIVE DOSE OF 1-(1-OXO-1,2-DIHYDROISOQUINOLIN-5-YL)-5-(TRIFLUOROMETHYL)-N-(2-(TRIFLUOROMETHYL)PYRIDIN-4-YL)-1H-PYRAZOLE-4-CARBOXAMIDE” (Janssen Pharmaceutica NV, priority 2021, published 2024)
Read-outs that look alike come from different tables or passages of the source.

Assays:
[1] = test system: human cytokine IL-10 in serum; assay: Serum IL-10 (MSD assay) after a single dose in OCI-LY3 tumor-bearing NSG mice; format: in vivo
Procedure: (§1) NF-κB signaling regulates the secretion of multiple cytokines, including interleukin-10 (IL-10). MALT1 inhibition results in a decrease of IL-10 transcription and translation as well as secretion. Levels of the human cytokine IL-10 were measured in the serum of OCI-LY3 or OCI-LY10 ABC-DLBCL tumor bearing mice using a Mesoscale Discovery assay (MSD). 25 μL of mouse serum was transferred to an MSD plate (V-Plex Proinflammation Panel I (human) kit) and incubated together with 25 μL diluent 2 (MSD; R51BB-3) for 2 hours at RT followed by a 2-hour incubation with IL-10 antibody solution. Plates were read on a SECTOR imager. Serum human IL-10 levels were correlated to serum compound concentration.
Serum IL-10 levels are graphed as the mean+/−SD.
(§2) For PD, when tumors reached 550-750 mm^3 animals were assigned randomly into the treatment groups and treated as presented in Table 5. Dose volumes were adjusted to individual body weights at 10 mL/kg. For both PD studies, serum was collected at 2 and 12 hours post treatment from the retro-orbital sinus. At 24 hours post treatment, animals were bled via decapitation and tumors were excised, weighed, and divided for bioanalysis and ex vivo PD analysis. Blood was centrifuged at 10,000 rpm and serum divided for bioanalysis and PD analysis.

[2] = test system: human cytokine IL-10 in serum; assay: Serum IL-10 (MSD assay) after a single dose in OCI-LY10 tumor-bearing NSG mice; format: in vivo
Procedure: as §1
Serum samples were collected at 2, 12, and 24 hours post dose and tumor samples were collected 24 hours post dose. Human IL-10 was measured in serum samples using a Mesoscale assay.
Serum IL-10 levels are graphed as the mean+/−standard deviation.
as §2

primary T cells = assay: Treg/Teff ratio after CD3/28 stimulation of primary T cells (flow cytometry); format: cell-based, human; settings: compound added 24 hours after CD3/28 stimulation, for 72 hours
From the text: The role of MALT1 in the immunologic activity of T cells was investigated by looking at the proportions of Treg and effector T cells (Teff). These cells are in a dynamic balance and their ratio correlates with the effectiveness of protective immunity. An accumulation of Tregs, resulting in a higher Treg/Teff ratio within tumor tissue, is associated with worse prognosis in cancer. Whiteside T L. What are regulatory T cells (Treg) regulating in cancer and why? Semin Cancer Biol. 2012, 22, 327-34. In vitro, activation of T cells through TCR stimulation increases the Treg/Teff ratio by increasing the Treg population, as defined by CD4^+CD25^hiFOXP3^hi.
After 24 hours of pre-stimulation, the compound was added for 72 hours. Alternatively, the compound was added together with the CD3/28 stimulus for 96 hours. Cells were stained for flow cytometric analysis (BD Facs Verse). After gating on the living singlet population, the proportions of CD8^+ Teff and CD4^+CD25^hiFOXP3^hi Treg subpopulations were analysed.

[3] = test system: OCI-LY10 human DLBCL xenografts; assay: Antitumor efficacy in established OCI-LY10 human DLBCL xenografts; format: in vivo, NSG mice; settings: 3.5 weeks
Procedure: Tumor volume was calculated using the formula: tumor volume (mm^3)=(Dxd^2/2); where ‘D’ represents the larger diameter, and ‘d’ the smaller diameter of the tumor as determined by caliper measurements. Tumor volume data was graphically represented as the mean tumor volume±SEM.
Percent tumor growth inhibition (TGI) was defined as the difference between mean tumor volumes of the treated and control group, calculated as
where TVc is the mean tumor volume of a given control group and TVt is the mean tumor volume of the treatment group. As defined by National Cancer Institute criteria, ≥60% TGI is considered biologically significant.
Group tumor volumes are graphed as the mean+SEM. Mice were implanted SC on the right flank on Day 0.
OCY-LY10 cells were maintained at 37° C. in a humidified atmosphere (5% CO2, 95% air), in RPMI-1640 medium with GlutaMAX™, supplemented with 10% Fetal Bovine Serum (Heat Inactivated at 57° C.) and 1% Penicillin-Streptomycin. Each mouse received 1×10^6 OCI-LY10 cells in serum-free RPMI-1640 medium with Matrigel in 1:1 ratio in a total volume of 0.2 mL. Cells were implanted SC in the right flank using a 1 mL syringe and a 26-gauge needle. The day of tumor implantation was designated as Day 0.
For study 4, study animals were randomly assigned into treatment groups, when the mean OCI-LY10 tumor volume reached 169 mm^3 (Day 15 post-tumor cell implantation). Treatment was initiated the day after randomization (Day 16). Treatment for the antitumor efficacy study lasted for 24 days until Day 40, when most animals in the Vehicle control group reached ethical tumor volume limits. […] Blood was collected from the retro-orbital sinus and submitted for bioanalytical analysis.

[4] = 14-day oral toxicity study toxicokinetics in Sprague-Dawley rats; format: in vivo; settings: rat, plasma; for Cmax / AUC(0-t): mean; for AUC(0-t): read-out: AUC0-24 h; for Tmax: range
Procedure: Repeated-dose PK (toxicokinetics) were obtained as part of the repeated oral dose toleration toxicity studies in rats and dogs.
There was no further increase in the daily exposure parameters at 1,000 mg/kg relative to those from 200 mg/kg/day. There was no effect of gender on exposure and there was no increase in daily exposure parameters on Day 14 relative to those observed after the first dose.

[5] = female, 30 mg/kg/day, female, Day 0, 30 mg/kg/day
[6] = female, 30 mg/kg/day, female, Day 13, 30 mg/kg/day
[7] = female, 200 mg/kg/day, female, Day 0, 200 mg/kg/day
[8] = female, 200 mg/kg/day, female, Day 13, 200 mg/kg/day
[9] = female, 1000 mg/kg/day, female, Day 0, 1,000 mg/kg/day
[10] = female, 1000 mg/kg/day, female, Day 13, 1,000 mg/kg/day
[11] = male, 30 mg/kg/day, male, Day 0, 30 mg/kg/day
[12] = male, 30 mg/kg/day, male, Day 13, 30 mg/kg/day
[13] = male, 200 mg/kg/day, male, Day 0, 200 mg/kg/day
[14] = male, 200 mg/kg/day, male, Day 13, 200 mg/kg/day
[15] = male, 1000 mg/kg/day, male (4M), Day 13, 1,000 mg/kg/day
[16] = male, 1000 mg/kg/day, male, Day 0, 1,000 mg/kg/day

Question: For O=C(Nc1ccnc(C(F)(F)F)c1)c1cnn(-c2cccc3c(=O)[nH]ccc23)c1C(F)(F)F [Compound A, 1-(1-oxo-1,2-dihydroisoquinolin-5-yl)-5-(trifluoromethyl)-N-[2-(trifluoromethyl)pyridin-4-yl]-1H-pyrazole-4-carboxamide], which “inhibition or reduction of serum IL-10” value ([1]; single dose 10 mg/kg, 12 hours post dose) is on record?
Answer: The value was “intermediate inhibition or reduction”.

Question: What about the “inhibition or reduction of serum IL-10” value ([1]; single dose 30 mg/kg, 12 hours post dose) of the same molecule?
Answer: Its value is “completely inhibited or reduced serum IL-10”.

Question: And the “inhibition or reduction of serum IL-10” value ([1]; single dose 100 mg/kg, 12 hours post dose)?
Answer: Its value is “completely inhibited or reduced serum IL-10”.

Question: What about the “inhibition or reduction of serum IL-10” value ([1]; single dose, 24 hours post dose) of the same molecule?
Answer: Its value is “lost at 24 hours post dose”.

Question: What about the “effect of adding precipitation inhibitor on exposure and PD” value ([2]; 100 mg/kg plus precipitation inhibitor PVP/VA64, 24 hours) of the same molecule?
Answer: The value was “increased exposures correlating to increased PD shutdown at 24 hours”.

Question: What about the “inhibition or reduction of serum IL-10” value ([2]; single oral dose 3 mg/kg, 12 hours post dose) of the same molecule?
Answer: The value was “intermediate inhibition or reduction”.

Question: And the “inhibition or reduction of serum IL-10” value ([2]; single oral dose 10 mg/kg, 12 hours post dose)?
Answer: The value was “strong inhibition or reduction”.

Question: And the “inhibition or reduction of serum IL-10” value ([2]; single oral dose 30 mg/kg, 12 hours post dose)?
Answer: The value was “completely inhibited or reduced serum IL-10 levels”.

Question: What about the “inhibition or reduction of serum IL-10” value ([2]; single oral dose 100 mg/kg, 12 hours post dose) of the same molecule?
Answer: The value was “completely inhibited or reduced serum IL-10 levels”.

Question: What about the “inhibition or reduction of serum IL-10” value ([2]; single oral dose, 24 hours post dose) of the same molecule?
Answer: The value was “rebounded at 24 hours post dose”.

Question: And the “effect on Treg and Teff populations” value (primary T cells)?
Answer: The value was “did not influence the Treg and Ter populations”.

Question: And the TGI ([3]; 3 mg/kg BID PO, not statistically significant)?
Answer: The TGI was 11%.

Question: What about the TGI ([3]; 10 mg/kg BID PO) of the same molecule?
Answer: The TGI was 41%.

Question: And the TGI ([3]; 30 mg/kg BID PO)?
Answer: The TGI was 54%.

Question: What about the TGI ([3]; 100 mg/kg BID PO) of the same molecule?
Answer: The TGI was 62%.

Question: What about the Cmax [4, 5] of the same molecule?
Answer: The Cmax was 27.1 µg/mL.

Question: And the AUC(0-t) [4, 5]?
Answer: Its AUC(0-t) is 366 µg·h/mL.

Question: What about the Tmax [4, 5] of the same molecule?
Answer: Its Tmax is 1 to 7 h.

Question: What about the Cmax [4, 6] of the same molecule?
Answer: Its Cmax is 33.4 µg/mL.

Question: What about the AUC(0-t) [4, 6] of the same molecule?
Answer: The AUC(0-t) was 451 µg·h/mL.

Question: What about the Tmax [4, 6] of the same molecule?
Answer: Its Tmax is 2 to 4 h.

Question: And the Cmax [4, 7]?
Answer: The Cmax was 93.1 µg/mL.

Question: And the AUC(0-t) [4, 7]?
Answer: The AUC(0-t) was 93.1 µg·h/mL.

Question: And the Cmax [4, 8]?
Answer: Its Cmax is 96.1 µg/mL.

Question: What about the AUC(0-t) [4, 8] of the same molecule?
Answer: Its AUC(0-t) is 1300 µg·h/mL.

Question: And the Tmax [4, 8]?
Answer: The Tmax was 2 to 7 h.

Question: What about the Cmax [4, 9] of the same molecule?
Answer: Its Cmax is 83.2 µg/mL.

Question: And the AUC(0-t) [4, 9]?
Answer: Its AUC(0-t) is 1140 µg·h/mL.

Question: What about the Tmax [4, 9] of the same molecule?
Answer: The Tmax was 2 to 4 h.

Question: What about the Cmax [4, 10] of the same molecule?
Answer: The Cmax was 83.2 µg/mL.

Question: And the AUC(0-t) [4, 10]?
Answer: Its AUC(0-t) is 83.2 µg·h/mL.

Question: What about the Cmax ([4]; male, 30 mg/kg/day, male, Day 0 (first day of dosing), 30 mg/kg/day) of the same molecule?
Answer: Its Cmax is 24.4 µg/mL.

Question: And the AUC(0-t) [4, 11]?
Answer: The AUC(0-t) was 247 µg·h/mL.

Question: And the Tmax [4, 11]?
Answer: The Tmax was 2 to 4 h.

Question: What about the Cmax [4, 12] of the same molecule?
Answer: Its Cmax is 26.7 µg/mL.

Question: And the AUC(0-t) [4, 12]?
Answer: Its AUC(0-t) is 305 µg·h/mL.

Question: And the Tmax [4, 12]?
Answer: The Tmax was 2 h.

Question: And the Cmax [4, 13]?
Answer: Its Cmax is 96.7 µg/mL.

Question: And the AUC(0-t) [4, 13]?
Answer: Its AUC(0-t) is 1410 µg·h/mL.

Question: What about the Tmax [4, 13] of the same molecule?
Answer: Its Tmax is 7 to 9 h.

Question: And the Cmax [4, 14]?
Answer: Its Cmax is 63.9 µg/mL.

Question: And the AUC(0-t) [4, 14]?
Answer: The AUC(0-t) was 803 µg·h/mL.

Question: What about the Tmax [4, 14] of the same molecule?
Answer: The Tmax was 2 to 7 h.

Question: And the Cmax [4, 15]?
Answer: Its Cmax is 83.2 µg/mL.

Question: And the AUC(0-t) [4, 15]?
Answer: Its AUC(0-t) is 898 µg·h/mL.

Question: What about the Tmax [4, 15] of the same molecule?
Answer: The Tmax was 2 to 4 h.

Question: What about the Cmax [4, 16] of the same molecule?
Answer: Its Cmax is 90.8 µg/mL.

Question: What about the AUC(0-t) [4, 16] of the same molecule?
Answer: The AUC(0-t) was 1120 µg·h/mL.

Question: And the Tmax [4, 16]?
Answer: Its Tmax is 2 to 9 h.
